In experiment [1] the test system is TNFα release from LPS-stimulated THP-1 cells (iRhom2/ADAM17-dependent). Briefly: Primary screen (Example 1b): LPS-stimulated TNFα release from THP-1 cells, HTRF. It counts as cell-based. As to conditions: Homo sapiens, overnight pre-incubation, LPS 100 ng/mL, 3 h, normalized against 10 μM Batimastat. The method, then:
Two separate screens to identify novel small molecule inhibitors of iRhom2/ADAM17 activity were developed. […] Therefore, the primary screen for small molecule inhibitors of iRhom2/ADAM17 was a screen for inhibitors that blocked the release of TNFα from LPS-stimulated THP-1 human myeloid cells, a process that depends on iRhom2 and ADAM17. Since the release of TNFα from THP-1 cells can be blocked at many stages of the LPS/TLR4/iRhom2/ADAM17 pathway, a secondary screen was performed for another iRhom2/ADAM17 selective substrate, Kit-ligand 2 (KL-2) (Maretzky T et al. (July 2013), “iRhom2 controls the substrate selectivity of stimulated ADAM17-dependent ectodomain shedding”, PNAS 110(28): 11433-11438) in a different human cell type, human embryonic kidney cells (HEK 293).
THP-1 cells were plated in low volume 384 wells (10,000 cells per well in 12.6 μL RPMI medium) together with inhibitors or 10 μM BB94 and incubated over night. The next day, TNFα shedding was initiated by stimulation of THP-1 cells with 100 ng/mL LPS (1.8 μL of an 800 ng/mL LPS stock) for 3 hrs at 37° C. The extent of released TNFα was detected with the corresponding HTRF antibodies labeled with europium cryptate (donor) and d2 (acceptor). The HTRF signal was generated by proximity of europium cryptate and d2. All detection reagents were purchased from Cisbio. TNFα detection was performed according to the manufacturer's protocol (Product Insert for Cisbio TNFα (h) Kit Part #62HTNFAPEG & 62HTNFAPEH; https://www.cisbio.com/media/asset/c/i/cisbio_dd_pi_62htnfapeg-62htnfapeh.pdf, accessed Sep. 28, 2020).
Low volume 384 well plates were pre-coated with small molecule library compounds for a final concentration of 20 μM in a 15 μL reaction, or 0.75 μL of 200 μM stock of BB94 in 5% DMSO (final concentration 0.25%). 12.6 μL of cell suspension [8E5/mL; 10,000 cells/well; culture RPMI medium] and pre-incubated at 37° C., 5% CO2, over night. The next day, 1.8 μL of an 800 ng/mL LPS stock was added [final concentration 100 ng/mL in 15 μL assay] and the cells were incubated at 37° C., 5% CO2, for 3 h. Subsequently, 3 μL of the HTRF-mix [used at 1:3 dilution of cisbio HTRF human TNF] was added and the plates were incubated for an additional 2 hrs at 25° C. After an incubation at room temperature for 2 h, the HTRF readout was performed. Then data evaluation for normalization against the 10 μM Batimastat control (=100% […]) was applied.

Experiment [2] deals with PMA-stimulated TGFα release from HEK-293 cells (substrate of iRhom1/ADAM17 and iRhom2/ADAM17). The experiment is described as follows: Counter screen (Example 4b): PMA-stimulated TGFα release from HEK-293 cells, AP readout. It counts as cell-based. As to conditions: Homo sapiens, HEK293, HEK-293 cells expressing TGFα-AP, PMA 100 ng/mL, 2 h. As for the experimental part: A tertiary counterscreen was also performed to monitor the release of TGFα, which is a substrate of iRhom1/ADAM17 and iRhom2/ADAM17, so its release should not be blocked by an iRhom2-selective inhibitor (Maretzky T et al. (July 2013), “iRhom2 controls the substrate selectivity of stimulated ADAM117-dependent ectodomain shedding”, PNAS 110(28): 11433-11438; and Li X et al. (May 2015), “iRhoms 1 and 2 are essential upstream regulators of ADAM17-dependent EGFR signaling”, PNAS 112(19): 6080-6085).
Expression plasmids for alkaline phosphatase (AP)-fused human KL2 and TGFα had been previously designed and generated through gene synthesis followed by subcloning into the pcDNA3.1(+)/Hygro expression vector. […] Subsequently, DNA amplifications were performed to obtain sufficient amounts of the expression vectors. The quality of DNA and gene sequences were confirmed through restriction digest and Sanger sequencing. In parallel, cell culture of HEK-293 cells was initiated. Master and working cell banks were prepared, scaled up and transfected with the respective constructs by electroporation. During cell culturing, cell density and viability were monitored to ensure optimal conditions for the transfections. After PMA stimulation, AP-coupled KL2 or TGFα were detected by measurement of AP activity in the supernatant.
After electroporation, cells were further cultured in presence of selection antibiotics, hygromycin B, to generate stably transfected polyclonal cell pools. For both assays, KL2 and TGFα shedding, the respective selected pool turned out to be suitable. Final assay conditions were determined for the selected pools. For all experiments, batimastat (BB94, 10 μM) was used as positive control for full inhibition of KL2 or TGFα shedding.
The wells of sterile 384-well flat bottom clear plates for TGF-AP assays were coated with 10 μL of 0.1 mg/mL poly-d-lysine for 3-4 hr at 25° C. or overnight at 4° C., then washed 2× with PBS and patted dry. 60 μL of cells (20,000/well) were added to the sterile 384-well plate and incubated in Optimem (with 2% FCS and 1% Pen-strep) overnight at 37° C. (5% CO2). After incubation overnight, 55 μL medium were removed with a BioTek EL406 and 10 μL of prediluted compounds were added to the cells for a final concentration of 20 μM. After incubation for 15 min, 15 μL of PMA (100 ng/mL final conc.) were added. The cells were incubated for 2 h at 37° C. (5% CO2). Then, the plates were centrifuged for 5 min at 1000 rpm and 12 μL of the supernatant was transferred to a fresh 384 well plate. 12 μL of pNPP p-nitrophenyl phosphate (final 1 M pNPP) was added. AP reaction was performed for 1 h at 37° C. The reaction was stopped by addition of 12 μL of NaOH (1 M final conc.), the plates were centrifuged to remove air bubbles and the absorbance of pNP was measured at 405 nm.

Structures are written as SMILES. Where only a bound is given, the exact number is not on record here.

Take `O=C(c1c(Cl)cccc1Cl)N1CCC(Cc2ccc(F)cc2)CC1` [Compound 3]: the IC50 in experiment [1] was < 0.0625 µM; in experiment [2] it was > 40 µM.
For `Cc1c(C(=O)NCc2cccs2)sc(=O)n1Cc1ccccc1` [Compound 4], the IC50 was 7.57 µM in experiment [1] and > 40 µM in experiment [2].
Taken in the same sequence, the figures for `Cc1c(C(=O)NCc2cccs2)sc(=O)n1Cc1ccccc1F` [Compound 5] were 5.21 µM and > 40 µM.
In the same order, the values of `Cc1c(C(=O)NCc2ccco2)sc(=O)n1Cc1ccccc1F` [Compound 7] are 3.93 µM and > 40 µM.

(Values after patent US20260242359A1, “IRHOM2 INHIBITORS AND USES THEREOF” (NEW YORK SOCIETY FOR THE RELIEF OF THE RUPTURED AND …, priority 2023, published 2026).)
